Measurements published in ChEMBL document CHEMBL1126960 (J Med Chem, 1993).
pKi: −log10 of the molar value.

Key:
Rattus norvegicus [1] = species: Rattus norvegicus; conditions: Frontal cortex
Description: Effect of compound (2 mg/kg ip) on the concentration of DOPAC in rat frontal cortex

Rattus norvegicus [2] = species: Rattus norvegicus; conditions: Frontal cortex; remark: listed apart in the source
Description: Effect of compound (2 mg/kg ip) on the concentration of 5-HT in rat frontal cortex

Rattus norvegicus [3] = species: Rattus norvegicus; conditions: Striatum
Description: Effect of compound (2 mg/kg ip) on the concentration of DA in rat striatum

Rattus norvegicus [4] = species: Rattus norvegicus; conditions: Striatum; remark: listed apart in the source
Description: Effect of compound (2 mg/kg ip) on the concentration of DOPAC in rat striatum

Rattus norvegicus [5] = species: Rattus norvegicus
Description: Effect of compound (2 mg/kg ip) on the concentration of HVA in rat mesolimbic region

Rattus norvegicus [6] = species: Rattus norvegicus; conditions: Frontal cortex; remark: listed apart in the source
Description: Effect of compound (2 mg/kg ip) on the concentration of HVA in rat frontal cortex

Sigma 2 receptor [7] = assay: Tested for [3H]DTG binding to sigma-2 receptor in NG108-15 membrane; assay type: cell membranes
D(3) dopamine receptor = D(3) dopamine receptor (Homo sapiens, UniProt P35462); assay: biochemical
Chain of D(3) dopamine receptor (P35462 whole entry): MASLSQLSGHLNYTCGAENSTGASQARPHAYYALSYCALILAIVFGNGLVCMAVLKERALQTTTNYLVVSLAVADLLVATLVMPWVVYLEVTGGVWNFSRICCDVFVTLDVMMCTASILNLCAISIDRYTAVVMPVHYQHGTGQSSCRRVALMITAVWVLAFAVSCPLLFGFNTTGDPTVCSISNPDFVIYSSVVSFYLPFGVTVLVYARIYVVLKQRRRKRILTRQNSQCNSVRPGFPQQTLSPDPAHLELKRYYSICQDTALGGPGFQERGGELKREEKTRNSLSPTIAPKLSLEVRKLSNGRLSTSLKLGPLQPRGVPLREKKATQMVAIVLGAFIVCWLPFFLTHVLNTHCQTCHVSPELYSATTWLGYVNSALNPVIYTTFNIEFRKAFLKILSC
Description: Displacement of [3H]-spiperone from CHO-K1 cell membranes expressing human dopamine 3 receptors

Rattus norvegicus [8] = species: Rattus norvegicus; remark: listed apart in the source
Description: Effect of compound (2 mg/kg ip) on the concentration of DOPAC in rat mesolimbic region

Rattus norvegicus [9] = species: Rattus norvegicus; conditions: Frontal cortex; remark: listed apart in the source
Description: Effect of compound (2 mg/kg ip) on the concentration of DOPAC/DA in rat frontal cortex

Rattus norvegicus [10] = species: Rattus norvegicus; remark: listed apart in the source
Description: Effect of compound (2 mg/kg ip) on the concentration of 5-HIAA in rat mesolimbic region

Rattus norvegicus [11] = species: Rattus norvegicus; conditions: Frontal cortex; remark: listed apart in the source
Description: Effect of compound (2 mg/kg ip) on the concentration of 5-HIAA in rat frontal cortex

Rattus norvegicus [12] = species: Rattus norvegicus; conditions: Striatum; remark: listed apart in the source
Description: Effect of compound (2 mg/kg ip) on the concentration of DOPAC/DA in rat striatum

Rattus norvegicus [13] = species: Rattus norvegicus; remark: listed apart in the source
Description: Effect of compound (2 mg/kg ip) on the concentration of DA in rat mesolimbic region

Rattus norvegicus [14] = species: Rattus norvegicus; conditions: Striatum; remark: listed apart in the source
Description: Effect of compound (2 mg/kg ip) on the concentration of HVA in rat striatum

Rattus norvegicus [15] = species: Rattus norvegicus; conditions: Striatum; remark: listed apart in the source
Description: Effect of compound (2 mg/kg ip) on the concentration of 5-HIAA in rat striatum

Rattus norvegicus [16] = species: Rattus norvegicus; conditions: Frontal cortex; remark: listed apart in the source
Description: Effect of compound (2 mg/kg ip) on the concentration of DA in rat frontal cortex

Rattus norvegicus [17] = species: Rattus norvegicus; remark: listed apart in the source
Description: Effect of compound (2 mg/kg ip) on the concentration of 5-HT in rat mesolimbic region

Rattus norvegicus [18] = species: Rattus norvegicus; remark: listed apart in the source
Description: Effect of compound (2 mg/kg ip) on the concentration of DOPAC/DA in rat mesolimbic region

Rattus norvegicus [19] = species: Rattus norvegicus; conditions: Striatum; remark: listed apart in the source
Description: Effect of compound (2 mg/kg ip) on the concentration of 5-HT in rat striatum

Sigma 2 receptor [20] = assay: Tested for [3H]DTG binding to sigma-2 receptor in NG108-15 cell membranes
D(2) dopamine receptor = D(2) dopamine receptor (Homo sapiens, UniProt P14416); assay: biochemical
Chain of D(2) dopamine receptor (P14416 whole entry): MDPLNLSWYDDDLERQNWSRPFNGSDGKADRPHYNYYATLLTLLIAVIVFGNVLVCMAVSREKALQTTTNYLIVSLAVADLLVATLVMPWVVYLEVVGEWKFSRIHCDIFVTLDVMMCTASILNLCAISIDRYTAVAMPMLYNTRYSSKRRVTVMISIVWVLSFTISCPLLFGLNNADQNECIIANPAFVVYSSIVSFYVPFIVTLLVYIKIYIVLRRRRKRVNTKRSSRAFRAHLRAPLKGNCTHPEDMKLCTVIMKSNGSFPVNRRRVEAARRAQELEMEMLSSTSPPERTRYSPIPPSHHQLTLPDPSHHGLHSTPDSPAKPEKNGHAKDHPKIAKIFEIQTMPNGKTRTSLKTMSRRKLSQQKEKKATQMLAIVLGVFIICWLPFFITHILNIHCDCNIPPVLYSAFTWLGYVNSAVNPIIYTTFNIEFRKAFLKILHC
Description: Displacement of [3H]spiperone from CHO-K1 cell membranes expressing human dopamine receptor D2

Rattus norvegicus [21] = species: Rattus norvegicus; remark: listed apart in the source
Description: Effect of compound (0.2 mg/kg ip) on the concentration of HVA in rat mesolimbic region

Rattus norvegicus [22] = species: Rattus norvegicus; conditions: Frontal cortex; remark: listed apart in the source
Description: Effect of compound (0.2 mg/kg ip) on the concentration of DA in rat frontal cortex

Rattus norvegicus [23] = species: Rattus norvegicus; remark: listed apart in the source
Description: Effect of compound (0.2 mg/kg ip) on the concentration of DA in rat mesolimbic region

Rattus norvegicus [24] = species: Rattus norvegicus; conditions: Frontal cortex; remark: listed apart in the source
Description: Effect of compound (0.2 mg/kg ip) on the concentration of HVA in rat frontal cortex

Rattus norvegicus [25] = species: Rattus norvegicus; conditions: Frontal cortex; remark: listed apart in the source
Description: Effect of compound on (0.2 mg/kg ip) the concentration of 5-HT in rat frontal cortex

Rattus norvegicus [26] = species: Rattus norvegicus; conditions: Striatum; remark: listed apart in the source
Description: Effect of compound (0.2 mg/kg ip) on the concentration of 5-HT in rat striatum

Rattus norvegicus [27] = species: Rattus norvegicus; remark: listed apart in the source
Description: Effect of compound (0.2 mg/kg ip) on the concentration of DOPAC in rat mesolimbic region

Rattus norvegicus [28] = species: Rattus norvegicus; remark: listed apart in the source
Description: Effect of compound on (0.2 mg/kg ip) the concentration of 5-HIAA in rat mesolimbic region

Rattus norvegicus [29] = species: Rattus norvegicus; conditions: Frontal cortex; remark: listed apart in the source
Description: Effect of compound on (0.2 mg/kg ip) the concentration of 5-HIAA in rat frontal cortex

Rattus norvegicus [30] = species: Rattus norvegicus; conditions: Striatum; remark: listed apart in the source
Description: Effect of compound (0.2 mg/kg ip) on the concentration of 5-HIAA in rat striatum

Rattus norvegicus [31] = species: Rattus norvegicus; conditions: Striatum; remark: listed apart in the source
Description: Effect of compound (0.2 mg/kg ip) on the concentration of HVA in rat striatum

Rattus norvegicus [32] = species: Rattus norvegicus; conditions: Striatum; remark: listed apart in the source
Description: Effect of compound (0.2 mg/kg ip) on the concentration of DA in rat striatum

Rattus norvegicus [33] = species: Rattus norvegicus; remark: listed apart in the source
Description: Effect of compound on (0.2 mg/kg ip) the concentration of 5-HT in rat mesolimbic region

Rattus norvegicus [34] = species: Rattus norvegicus; conditions: Frontal cortex; remark: listed apart in the source
Description: Effect of compound (0.2 mg/kg ip) on the concentration of DOPAC in rat frontal cortex

Rattus norvegicus [35] = species: Rattus norvegicus; conditions: Striatum; remark: listed apart in the source
Description: Effect of compound (0.2 mg/kg ip) on the concentration of DOPAC/DA in rat striatum

Rattus norvegicus [36] = species: Rattus norvegicus; remark: listed apart in the source
Description: Effect of compound (0.2 mg/kg ip) on the concentration of DOPAC/DA in rat mesolimbic region

Rattus norvegicus [37] = species: Rattus norvegicus; conditions: Frontal cortex; remark: listed apart in the source
Description: Effect of compound on (0.2 mg/kg ip) the concentration of DOPAC/DA in rat frontal cortex

Rattus norvegicus [38] = species: Rattus norvegicus; conditions: Striatum; remark: listed apart in the source
Description: Effect of compound (0.2 mg/kg ip) on the concentration of DOPAC in rat striatum

O[C@@H](CCCN1CCC(O)(c2ccc(Cl)cc2)CC1)c1ccc(F)cc1
Concentration (ng (g of tissue)-1) (Rattus norvegicus [1]): 32
Concentration (ng (g of tissue)-1) (Rattus norvegicus [2]): 165
Concentration (ng (g of tissue)-1) (Rattus norvegicus [3]): 5230
Concentration (ng (g of tissue)-1) (Rattus norvegicus [4]): 2740
Concentration (ng (g of tissue)-1) (Rattus norvegicus [5]): 788
Concentration (ng (g of tissue)-1) (Rattus norvegicus [6]): 80
pKi (Sigma 2 receptor [7]): 8.09
pKi (D(3) dopamine receptor): 6.48
Concentration (ng (g of tissue)-1) (Rattus norvegicus [8]): 1310
Concentration (ng (g of tissue)-1) (Rattus norvegicus [9]): 1.7
Concentration (ng (g of tissue)-1) (Rattus norvegicus [10]): 527
Concentration (ng (g of tissue)-1) (Rattus norvegicus [11]): 156
Concentration (ng (g of tissue)-1) (Rattus norvegicus [12]): 0.523
Concentration (ng (g of tissue)-1) (Rattus norvegicus [13]): 2230
Concentration (ng (g of tissue)-1) (Rattus norvegicus [14]): 1980
Concentration (ng (g of tissue)-1) (Rattus norvegicus [15]): 437
Concentration (ng (g of tissue)-1) (Rattus norvegicus [16]): 19
Concentration (ng (g of tissue)-1) (Rattus norvegicus [17]): 639
Concentration (ng (g of tissue)-1) (Rattus norvegicus [18]): 0.588
Concentration (ng (g of tissue)-1) (Rattus norvegicus [19]): 367

O=C(CCCN1CCN(c2ccccn2)CC1)c1ccc(F)cc1 [AZAPERONE]
pKi (Sigma 2 receptor [20]): 7.29

O[C@H](CCCN1CCN(c2ccccn2)CC1)c1ccc(F)cc1
pKi (Sigma 2 receptor [20]): 6.55
pKi (D(3) dopamine receptor): 6.43
pKi (D(2) dopamine receptor): 6.39

O[C@@H](CCCN1CCN(c2ncc(F)cn2)CC1)c1ccc(F)cc1 [BMY-14802]
pKi (Sigma 2 receptor [20]): 7.02
pKi (D(3) dopamine receptor): < 5.70
pKi (D(2) dopamine receptor): 5.48

O[C@H](CCCN1CCN(c2ncc(F)cn2)CC1)c1ccc(F)cc1
pKi (Sigma 2 receptor [20]): 5.91
pKi (D(3) dopamine receptor): < 5.70
pKi (D(2) dopamine receptor): < 5.30

O[C@H](CCCN1CCC(O)(c2ccc(Cl)cc2)CC1)c1ccc(F)cc1
Concentration (ng (g of tissue)-1) (Rattus norvegicus [1]): 32
Concentration (ng (g of tissue)-1) (Rattus norvegicus [2]): 154
Concentration (ng (g of tissue)-1) (Rattus norvegicus [3]): 3750
Concentration (ng (g of tissue)-1) (Rattus norvegicus [4]): 2440
Concentration (ng (g of tissue)-1) (Rattus norvegicus [5]): 641
Concentration (ng (g of tissue)-1) (Rattus norvegicus [6]): 98
pKi (Sigma 2 receptor [7]): 7.51
pKi (D(3) dopamine receptor): 5.89
Concentration (ng (g of tissue)-1) (Rattus norvegicus [8]): 1020
Concentration (ng (g of tissue)-1) (Rattus norvegicus [9]): 1.81
Concentration (ng (g of tissue)-1) (Rattus norvegicus [10]): 492
Concentration (ng (g of tissue)-1) (Rattus norvegicus [11]): 172
Concentration (ng (g of tissue)-1) (Rattus norvegicus [12]): 0.651
Concentration (ng (g of tissue)-1) (Rattus norvegicus [13]): 1660
Concentration (ng (g of tissue)-1) (Rattus norvegicus [14]): 1780
Concentration (ng (g of tissue)-1) (Rattus norvegicus [15]): 510
Concentration (ng (g of tissue)-1) (Rattus norvegicus [16]): 18
Concentration (ng (g of tissue)-1) (Rattus norvegicus [17]): 627
Concentration (ng (g of tissue)-1) (Rattus norvegicus [18]): 0.616
Concentration (ng (g of tissue)-1) (Rattus norvegicus [19]): 397

O=C(CCCN1CCC(O)(c2ccc(Cl)cc2)CC1)c1ccc(F)cc1
Concentration (ng (g of tissue)-1) (Rattus norvegicus [21]): 669
Concentration (ng (g of tissue)-1) (Rattus norvegicus [22]): 27
Concentration (ng (g of tissue)-1) (Rattus norvegicus [23]): 1680
Concentration (ng (g of tissue)-1) (Rattus norvegicus [24]): 102
Concentration (ng (g of tissue)-1) (Rattus norvegicus [25]): 160
Concentration (ng (g of tissue)-1) (Rattus norvegicus [26]): 407
Concentration (ng (g of tissue)-1) (Rattus norvegicus [27]): 986
Concentration (ng (g of tissue)-1) (Rattus norvegicus [28]): 648
Concentration (ng (g of tissue)-1) (Rattus norvegicus [29]): 180
Concentration (ng (g of tissue)-1) (Rattus norvegicus [30]): 552
Concentration (ng (g of tissue)-1) (Rattus norvegicus [31]): 2190
Concentration (ng (g of tissue)-1) (Rattus norvegicus [32]): 5140
Concentration (ng (g of tissue)-1) (Rattus norvegicus [33]): 657
Concentration (ng (g of tissue)-1) (Rattus norvegicus [34]): 32
Concentration (ng (g of tissue)-1) (Rattus norvegicus [35]): 0.558
Concentration (ng (g of tissue)-1) (Rattus norvegicus [36]): 0.587
Concentration (ng (g of tissue)-1) (Rattus norvegicus [37]): 1.18
Concentration (ng (g of tissue)-1) (Rattus norvegicus [38]): 2870

O[C@@H](CCCN1CCN(c2ccccn2)CC1)c1ccc(F)cc1
pKi (Sigma 2 receptor [20]): 7.42
pKi (D(3) dopamine receptor): 6.90
pKi (D(2) dopamine receptor): 7.00
